Measurements: PMC11984905, “Chiral Switch of Gadopiclenol: New Standards in MRI Probes” (Advanced Science, 2025)
Like-named read-outs stand apart in the source and are kept apart here. Marks after values point to notes of the source that are not given here.

Assays:
[1] = cited from earlier work
[2] = cited from earlier work; remark: listed apart in the source
[3] = cited from earlier work; remark: listed apart in the source
[4] = cited from earlier work; for pGd: [Gd^3+]tot = 1 µM, [L]tot = 10 µM; for pGd / logK^c GdL: pH 7.4, calculated from literature constants; for *logKGd(H2L): diprotonated out-of-cage intermediate
[5] = 25 °C, cited from earlier work
[6] = cited from earlier work; remark: listed apart in the source
[7] = design: method as in earlier work; details: stability constant of the Na+ complex; cited from earlier work
[8] = Biodistribution and in vivo dynamic T1-weighted MRI; design: species or system A/J healthy mice; details: 0.1 mmol Gd/kg i.v.
Protocol: Dynamic T 1‐weighted MRI on twelve A/J healthy mice was used to compare the biodistribution of ([Gd(ent‐L2)] and [Gd(BT‐DO3A)] (Gadovist), n = 6 animals each), administered at 0.1 mmol Gd/kg. The MRI monitored the distribution within abdominal tissues for up to 1 h post‐administration MRI images and the pharmacokinetic curves are shown in Figure 6 .
All the procedures and the experiments were conducted according to the national and international laws on experimental animal research (L.D. 26/2014; Directive 2010/63/EU) and under a specific Italian Ministerial Authorization (project research number 46/2015‐PR). Twelve A/J healthy mice (females, 6–7 weeks old, supplied by Envigo RMS S.r.l.) were housed in a controlled environment (22°C, 55% humidity, 15–20 air changes/hour, 12‐h light/dark cycle) with ad libitum access to VRF1 (P) certified pellets and filtered water. To minimize discomfort, the animals were socially housed with enrichment items. Veterinary care was available throughout the study to alleviate any potential pain or distress following procedures. […] The animals were randomly assigned to two experimental groups (n = 6 each, with sample size confirmed via GPower) and underwent to Magnetic Resonance Imaging (MRI) experiments performed using a BioSpec 47/30 preclinical scanner (Bruker Biospin, Ettlingen, Germany) operating at […] (i.e., at a proton Larmor frequency of 125 MHz) and equipped with two‐channel 35 mm RF volume coil. During MRI experiments, all the animals were anaesthetized with isoflurane gas (≈1%) in O2. Anaesthesia was maintained by adjustment of gas level as a function of breath rate. Before injection of each test article, T 1‐weighted spin echo sequences were acquired on the animal in order to check the position of the animal. A series of T 1‐weighted 3D gradient echoscans (repetition time = 50 ms, flip angle = 50°, echo time = 2.8 ms, number of averages = 2, matrix size (3D) = 192 × 192 × 8, field of view = 2.5 × 2.5 × 1.2 cm, acquisition time = 154 s) were then acquired before and after the intravenous administration of a 50 mM saline solution (0.9%) of [Gd(ent‐L2)] (n = 6 mice) and [Gd(BT‐DO3A)] (Gadovist, Bayer Schering, Germany) (n = 6 mice) at an injection rate of ≈2 mL/min through a catheter placed in the tail vein of the animal. Both [Gd(ent‐L2)] and [Gd(BT‐DO3A)] were administered at a dose of 0.1 mmol Gd/kg corresponding to an administration volume of 2 mL kg^−1. The kinetics of the Gd(III)‐complexes was followed up to 60 min post‐injection. After imaging was performed, the mouse was removed from the scanner and returned to the Animal Facility room. At the end of the study all animals were sacrificed by overdose of anaesthesia and cervical dislocation. Unblinded image analysis was performed by positioning the region of interest (ROIs) over liver, kidney, muscle, and blood vessel. ROIs positioning and signal quantification was performed by using a home‐developed plugin, running on Image J.^[ [51] ^]
Signal enhancement (Enh) was calculated using the formula: Enh = 100×(SignalpostCA ‐SignalpreCA)/SignalpreCA, where SignalpreCA and SignalpostCA denote the MR signal before and after administration of contrast agents, respectively. Data were presented as mean ± standard deviation (SD). The sample size (n = 6 per group) was determined a priori using GPower software to ensure adequate statistical power. The Levene's test was employed to assess the homogeneity of variances among groups. For comparisons where homogeneity of variance was confirmed, a one‐way ANalysis Of VAriance (ANOVA) was applied to test the null hypothesis that treatment groups originate from the same distribution. Post‐hoc pairwise multiple comparisons were performed using Tukey's method when significant differences were detected. Statistical analyses and data visualization were conducted using Mathematica (Wolfram, USA), while summary statistics (mean, SD, and standard error) were calculated using Microsoft Excel (USA). […]

[9] = cited from earlier work; for ^298K r 1 [1.5 T] / r 1 ^310K [1.5 T]: water; for τ R: Table 2

O=C(O)CN1CCN(CC(=O)O)CCN(CC(=O)O)CCN(CC(=O)O)CC1 [DOTA]
k d at pH = 7.4 ([1]; pH 7.4, 0.15 M NaCl, 25 °C): 7.3 × 10^−14 s^−1
logK ZnL ([2]; 0.1 M KCl): 18.7
logKZnH2L ([2]; 0.1 M KCl): 3.96
logKZnHL ([2]; 0.1 M KCl): 5.33
logK CuL ([3]; 0.1 M KCl): 22.72
logKCuH2L ([3]; 0.1 M KCl): 3.92
logKCuHL ([3]; 0.1 M KCl): 4.45
logKGdHL ([4]; 0.1 M KCl): 1.15
logK GdL ([4]; 0.1 M Me4NCl, 25 °C): 25.6
logK GdL ([4]; 0.1 M NaCl, 25 °C): 24.7
pGd ([4]; 0.1 M Me4NCl, 25 °C): 20.24
pGd ([4]; 0.1 M NaCl, 25 °C): 22.09
*logKGd(H2L) ([4]; 0.15 M NaCl, 25 °C): 6.07^f)
logK^c GdL ([4]; 0.1 M Me4NCl, 25 °C): 19.29
logK^c GdL ([4]; 0.1 M NaCl, 25 °C): 21.14
logK1^H ([5]; 0.1 M KCl): 11.14
logK2^H ([5]; 0.1 M KCl): 9.69
logK3^H ([5]; 0.1 M KCl): 4.85
logK4^H ([5]; 0.1 M KCl): 3.95
ΣlogKi^H ([5]; 0.1 M KCl): 29.63
logK1^H ([5]; 0.1 M Me4NCl): 11.45
logK2^H ([5]; 0.1 M Me4NCl): 9.64
logK3^H ([5]; 0.1 M Me4NCl): 4.60
logK4^H ([5]; 0.1 M Me4NCl): 4.11
logK5^H ([5]; 0.1 M Me4NCl): 2.29
ΣlogKi^H ([5]; 0.1 M Me4NCl): 32.09
logK1^H ([5]; 0.15 M NaCl): 9.14
logK2^H ([5]; 0.15 M NaCl): 9.21
logK3^H ([5]; 0.15 M NaCl): 4.48
logK4^H ([5]; 0.15 M NaCl): 4.03
logK5^H ([5]; 0.15 M NaCl): 1.99^d)
ΣlogKi^H ([5]; 0.15 M NaCl): 28.85
logK CaL ([6]; 0.1 M KCl): 16.37
logKCaHL ([6]; 0.1 M KCl): 3.60
logKNa(L) [7]: 4.38

CC(O)CN1CCN(CC(=O)O)CCN(CC(=O)O)CCN(CC(=O)O)CC1 (stereo not shown) [HP‐DO3A]
k d at pH = 7.4 ([1]; pH 7.4, 0.1 M NaCl, 25 °C): 1.0 × 10^−11 s^−1
k d at pH = 7.4 ([1]; pH 7.4, 0.15 M NaCl, 25 °C): 1.2 × 10^−11 s^−1
logK ZnL ([2]; 0.1 M Me4NCl, 25 °C): 19.37
logKZnHL ([2]; 0.1 M Me4NCl): 3.7
logK CuL ([3]; 0.1 M Me4NCl, 25 °C): 22.84
logKCuH2L ([3]; 0.1 M Me4NCl): 2.3
logKCuHL ([3]; 0.1 M Me4NCl): 3.72
logK GdL ([4]; 0.1 M Me4NCl, 25 °C): 23.8
logKGdHL ([4]; 0.1 M Me4NCl): 1.10
logKGdLH-1 ([4]; 0.15 M NaCl, 25 °C): 11.36^f)
pGd ([4]; 0.1 M Me4NCl): 18.16
*logKGd(H2L) ([4]; 0.15 M NaCl, 25 °C): 5.10^f)
logK^c GdL ([4]; 0.1 M Me4NCl): 17.21
logK1^H ([5]; 0.1 M Me4NCl): 11.96
logK2^H ([5]; 0.1 M Me4NCl): 9.43
logK3^H ([5]; 0.1 M Me4NCl): 4.30
logK4^H ([5]; 0.1 M Me4NCl): 3.26
ΣlogKi^H ([5]; 0.1 M Me4NCl): 28.95
logK CaL ([6]; 0.1 M Me4NCl, 25 °C): 14.83

O=C(O)CN1CCN(CC(=O)O)Cc2cccc(n2)CN(CC(=O)O)CC1 [PCTA, 3,6,9,15‐tetraazabicyclo[9.3.1]pentadeca‐1(15),11,13‐triene‐3,6,9 triacetic acid]
logK ZnL ([2]; 1.0 M KCl): 20.48
logKZnHL ([2]; 1.0 M KCl): 3.10
logK CuL ([3]; 1.0 M KCl): 18.79
logKCuHL ([3]; 1.0 M KCl): 3.58
logK GdL ([4]; 1.0 M KCl): 20.39
logKGdLH-1 ([4]; 1.0 M KCl): 11.10
pGd ([4]; 1.0 M KCl): 17.11
*logKGd(H2L) ([4]; 1.0 M KCl): 3.12
logK^c GdL ([4]; 1.0 M KCl): 16.15
logK1^H ([5]; 0.15 M NaCl): 9.97
logK2^H ([5]; 0.15 M NaCl): 6.73
logK3^H ([5]; 0.15 M NaCl): 3.22
logK4^H ([5]; 0.15 M NaCl): 1.40
ΣlogKi^H ([5]; 0.15 M NaCl): 21.32
logK1^H ([5]; 1.0 M KCl): 11.36
logK2^H ([5]; 1.0 M KCl): 7.35
logK3^H ([5]; 1.0 M KCl): 3.83
logK4^H ([5]; 1.0 M KCl): 2.12
ΣlogKi^H ([5]; 1.0 M KCl): 25.95
logK CaL ([6]; 1.0 M KCl): 12.72
logKCaHL ([6]; 1.0 M KCl): 3.79

O=C([O-])CN1CCN(CC(=O)[O-])CCN(C(CO)C(O)CO)CCN(CC(=O)[O-])CC1.[Gd+3] (stereo not shown) [[Gd(BT‐DO3A)], reference compound]
k1 ([1]; 25 °C): 3.4e-05 M⁻¹ s⁻¹
k d at pH = 7.4 ([1]; pH 7.4, 0.1 M NaCl, 25 °C): 1.35×10^-12 s^−1
average maximum signal enhancement in the liver ([8]; 3 T, n = 6): ≈ 110%
wash-in and wash-out kinetics ([8]; up to 1 h post-administration): rapid wash‐in and wash‐out
decrease in signal enhancement in the blood compartment ([8]; within 30 min, 3 T): ≥ 50%

O=C([O-])CN1CCN(CC(=O)[O-])CCN(CC(=O)[O-])CCN(CC(=O)[O-])CC1.[Gd+3] [[Gd(DOTA)]^−]
k1 ([1]; 0.15 M NaCl, 25 °C): 1.8e-06 M⁻¹ s⁻¹
K^HGd(HL) ([1]; 3.0 M NaClO4, 25 °C): 14^d) M^-1
k1 ([1]; 25 °C): 8.4e-06 M⁻¹ s⁻¹
k d at pH = 7.4 ([1]; pH 7.4, 0.15 M NaCl, 25 °C): 7.3×10^-14 s^−1
k d at pH = 7.4 ([1]; pH 7.4, 25 °C): 3.3×10^-14 s^−1
k0 ([1]; spontaneous dissociation, 0.15 M NaCl, 25 °C): 6.7×10^-11 b) s^-1
^298K r 1 [1.5 T] [9]: 4.2 mM⁻¹ s⁻¹
r 1 ^310K [1.5 T] [9]: 3.3 mM⁻¹ s⁻¹
τ R [9]: 90 ps
q [9]: 1
τ M1 [9]: 208 ns

O=C([O-])CN1CCN(CC(=O)[O-])Cc2cccc(n2)CN(CC(=O)[O-])CC1.[Gd+3] [[Gd(PCTA)]]
^298K r 1 [1.5 T] [9]: 6.4 mM⁻¹ s⁻¹
r 1 ^310K [1.5 T] [9]: 4.9 mM⁻¹ s⁻¹
τ R [9]: 63 ps
q [9]: 2
τ M1 [9]: 151 ns
τ M2 [9]: 36 ns
